The target in this assay is T1, JAK2 (JH1domain-catalytic, Y1007F,Y1008F) kinase (Homo sapiens, UniProt O60674, Y1007F/Y1008F).
T1 construct: JAK2 (JH1domain-catalytic, Y1007F,Y1008F) kinase was expressed as N-terminal fusion; made in house; host or cells: transiently transfected HEK293 cells
T1 sequence (O60674 849-1124 Y1007F/Y1008F limits assumed): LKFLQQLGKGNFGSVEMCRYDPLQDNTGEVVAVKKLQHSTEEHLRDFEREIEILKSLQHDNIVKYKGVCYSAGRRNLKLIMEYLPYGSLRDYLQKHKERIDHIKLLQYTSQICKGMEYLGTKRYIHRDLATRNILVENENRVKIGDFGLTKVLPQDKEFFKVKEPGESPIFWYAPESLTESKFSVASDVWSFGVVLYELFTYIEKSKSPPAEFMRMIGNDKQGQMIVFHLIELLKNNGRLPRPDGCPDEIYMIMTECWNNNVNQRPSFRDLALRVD
Nature of the assay: JAK2 JH1 Domain Binding Assay. As to conditions: qPCR readout.
As to `CN1C[C@H](F)[C@@H](n2nc(Nc3nc4ncc(Oc5cnn6ccncc56)c(Cl)c4n3C)cc2C(C)(C)C)C1` (single isomer, unassigned) [Example I-267-b], the Kd was 50 to 1000 nM.
The same measure for `CNc1nccn2ncc(Oc3cnc4nc(Nc5cc(C6CCCN6C)cc(C(F)(F)F)c5)n(C)c4c3Cl)c12` (single isomer, unassigned) [Example I-269-a]: 10 to 50 nM; for `CNc1nccn2ncc(Oc3cnc4nc(Nc5cc(C6CCCN6C)cc(C(F)(F)F)c5)n(C)c4c3Cl)c12` (single isomer, unassigned) [Example I-269-b]: 10 to 50 nM.
The same measure for `CN1CCC[C@@H]1c1cc(Nc2nc3ncc(Oc4cnn5ccncc45)c(Cl)c3n2C)cc(C(F)(F)F)c1` (single isomer, unassigned) [Example I-270-a]: under 10 nM.
The same measure for `CN1CCC[C@H]1c1cc(Nc2nc3ncc(Oc4cnn5ccncc45)c(Cl)c3n2C)cc(C(F)(F)F)c1` (single isomer, unassigned) [Example I-270-b]: under 10 nM; for `CNc1nccn2ncc(Oc3cnc4nc(Nc5cc(C(F)(F)F)n([C@H]6COC[C@@H]6O)n5)n(C)c4c3Cl)c12` (single isomer, unassigned) [Example I-279-a]: under 10 nM; for `CNc1nccn2ncc(Oc3cnc4nc(Nc5cc(C(F)(F)F)n([C@@H]6COC[C@H]6O)n5)n(C)c4c3Cl)c12` (single isomer, unassigned) [Example I-279-b]: under 10 nM.
The molecule `CNc1nccn2ncc(Oc3cnc4nc(Nc5cc([C@@H]6CCOC6)nc(C(F)(F)F)c5)n(C)c4c3Cl)c12` (single isomer, unassigned) [Example I-280-a] showed a Kd of 10 to 50 nM.
With `CNc1nccn2ncc(Oc3cnc4nc(Nc5cc([C@H]6CCOC6)nc(C(F)(F)F)c5)n(C)c4c3Cl)c12` (single isomer, unassigned) [Example I-280-b], the Kd is 10 to 50 nM.
With `CNc1cn2ncc(Oc3cnc4nc(Nc5cc(C(F)(F)F)cn([C@H]6CCOC6)c5=O)n(C)c4c3Cl)c2cn1` (single isomer, unassigned) [Example I-305] the figure was under 10 nM; with `CNc1cn2ncc(Oc3cnc4nc(Nc5cc(C(F)(F)F)cn([C@@H]6CCOC6)c5=O)n(C)c4c3Cl)c2cn1` (single isomer, unassigned) [Example I-306], 10 to 50 nM.
Regarding `CN1CCCC1c1ccc(Nc2nc3ncc(Oc4cnn5ccncc45)c(Cl)c3n2C)cc1C(F)(F)F` (single isomer, unassigned) [Example I-343], the dissociation constant (Kd) is under 10 nM.
The same measure for `CN1CCC[C@@H]1c1ccc(Nc2nc3ncc(Oc4cnn5ccncc45)c(Cl)c3n2C)cc1C(F)(F)F` (single isomer, unassigned) [Example I-344]: under 10 nM; for `CN1CCCCC1COc1cc(Nc2nc3ncc(Oc4cnn5ccncc45)c(Cl)c3n2C)cc(C(F)(F)F)c1` (single isomer, unassigned) [Example I-350-a]: under 10 nM; for `CN1CCCCC1COc1cc(Nc2nc3ncc(Oc4cnn5ccncc45)c(Cl)c3n2C)cc(C(F)(F)F)c1` (single isomer, unassigned) [Example I-350-b]: under 10 nM.
The same measure for `CNc1cn2ncc(Oc3cnc4nc(Nc5cc(C(F)(F)F)cn([C@H]6CCCOC6)c5=O)n(C)c4c3Cl)c2cn1` (single isomer, unassigned) [Example I-352-a]: 10 to 50 nM; for `CNc1cn2ncc(Oc3cnc4nc(Nc5cc(C(F)(F)F)cn([C@@H]6CCCOC6)c5=O)n(C)c4c3Cl)c2cn1` (single isomer, unassigned) [Example I-352-b]: 10 to 50 nM; for `CNc1cn2ncc(Oc3cnc4nc(Nc5cc([C@H]6CCCN6C)cc(C(F)(F)F)c5)n(C)c4c3Cl)c2cn1` (single isomer, unassigned) [Example I-359-a]: 50 to 1000 nM.
The same measure for `CNc1cn2ncc(Oc3cnc4nc(Nc5cc([C@@H]6CCCN6C)cc(C(F)(F)F)c5)n(C)c4c3Cl)c2cn1` (single isomer, unassigned) [Example I-359-b]: 50 to 1000 nM.
The molecule `COCCN1CCC(n2nc(Nc3nc4ncc(Oc5cnn6ccncc56)c(C(F)F)c4n3C)cc2C(C)(C)C)C1` (stereo in doubt) [Example I-52, (S)—N-(5-(tert-butyl)-1-(1-(2-methoxyethyl)pyrrolidin-3-yl)-1H-pyrazol-3-yl)-7-(difluoromethyl)-1-methyl-6-(pyrazolo[1,5-a]pyrazin-3-yloxy)-1H-imidazo[4,5-b]pyridin-2-amine] had a Kd of 10 to 50 nM.
The same measure for `Cn1c(Nc2cc(C(F)(F)F)cn([C@H]3C[C@H](O)C3)c2=O)nc2ncc(Oc3cnn4ccncc34)c(Cl)c21` (stereo in doubt) [Example I-89, trans-3-((7-chloro-1-methyl-6-(pyrazolo[1,5-a]pyrazin-3-yloxy)-1H-imidazo[4,5-b]pyridin-2-yl)amino)-1-(3-hydroxycyclobutyl)-5-(trifluoromethyl)pyridin-2(1H)-one]: under 10 nM; for `Cn1c(Nc2ccc(CN3CCC(O)C3)c(C(F)(F)F)c2)nc2ncc(Oc3cnn4ccncc34)c(Cl)c21` (stereo in doubt) [Example I-185, (S)-1-(4-((7-chloro-1-methyl-6-(pyrazolo[1,5-a]pyrazin-3-yloxy)-1H-imidazo[4,5-b]pyridin-2-yl)amino)-2-(trifluoromethyl)benzyl)pyrrolidin-3-ol]: under 10 nM.
The molecule `Cn1c(Nc2ccc(CN3CCC(O)C3)c(C(F)(F)F)c2)nc2ncc(Oc3cnn4ccncc34)c(Cl)c21` (stereo in doubt) [Example I-186, (R)-1-(4-((7-chloro-1-methyl-6-(pyrazolo[1,5-a]pyrazin-3-yloxy)-1H-imidazo[4,5-b]pyridin-2-yl)amino)-2-(trifluoromethyl)benzyl)pyrrolidin-3-ol] came in with a Kd of under 10 nM.
As to `Cn1c(Nc2cc(N3CCC(O)C3)cc(C(F)(F)F)c2)nc2ncc(Oc3cnn4ccncc34)c(Cl)c21` (stereo in doubt) [Example I-239, (S)-1-(3-((7-chloro-1-methyl-6-(pyrazolo[1,5-a]pyrazin-3-yloxy)-1H-imidazo[4,5-b]pyridin-2-yl)amino)-5-(trifluoromethyl)phenyl)pyrrolidin-3-ol], the Kd is under 10 nM.
The same measure for `CN(C)C1CCN(Cc2cc(Nc3nc4ncc(Oc5cnn6ccncc56)c(Cl)c4n3C)cc(C(F)(F)F)c2)C1` (stereo in doubt) [Example I-272, (R)-7-chloro-N-(3-((3-(dimethylamino)pyrrolidin-1-yl)methyl)-5-(trifluoromethyl)phenyl)-1-methyl-6-(pyrazolo[1,5-a]pyrazin-3-yloxy)-1H-imidazo[4,5-b]pyridin-2-amine]: under 10 nM.
With `Cn1c(Nc2cc(C(C)(C)C)n([C@@H]3CCOC3)n2)nc2ncc(Oc3cnc4[nH]c(C5CC5)cc4c3)cc21` [Example I-1, (R)—N-(5-(tert-butyl)-1-(tetrahydrofuran-3-yl)-1H-pyrazol-3-yl)-6-((2-cyclopropyl-1H-pyrrolo[2,3-b]pyridin-5-yl)oxy)-1-methyl-1H-imidazo[4,5-b]pyridin-2-amine] the figure was 10 to 50 nM; with `Cn1c(Nc2cc(C(C)(C)C)n([C@H]3CCOC3)n2)nc2ncc(Oc3cnc4[nH]c(C5CC5)cc4c3)cc21` [Example I-2, (S)—N-(5-(tert-butyl)-1-(tetrahydrofuran-3-yl)-1H-pyrazol-3-yl)-6-((2-cyclopropyl-1H-pyrrolo[2,3-b]pyridin-5-yl)oxy)-1-methyl-1H-imidazo[4,5-b]pyridin-2-amine], 10 to 50 nM.

The values above are taken from patent publication US12043632B2, “6-heteroaryloxy benzimidazoles and azabenzimidazoles as JAK2 inhibitors” (Ajax Therapeutics, Inc., priority 2020, dated 2024).
